These compounds were tested against T1, hCB1 (Homo sapiens, UniProt P21554) (assay: Agonist-induced GTP binding (GTPγ35S) assay at CB1, Example 8). Details: IC50 at CB1, determined as described in Example 8; read-out: IC50.
T1 construct: made in house; host or cells: Sf9 insect cells (baculovirus), P2 membranes
Assay type: biochemical
Method in brief: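 Membranes from Sf9 cells co-expressing hCB1 and heterotrimeric G-protein (10 μg protein) in Tris pH 7.4 buffer with 5 μM GDP. Test compounds (10^−10–10^−5 M) competed against 1 nM CP55,940 with […] GTPγ35S, 60 min at room temperature. Filter-bound radioactivity by scintillation, expressed as percent above basal.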

T1 sequence (P21554 whole entry): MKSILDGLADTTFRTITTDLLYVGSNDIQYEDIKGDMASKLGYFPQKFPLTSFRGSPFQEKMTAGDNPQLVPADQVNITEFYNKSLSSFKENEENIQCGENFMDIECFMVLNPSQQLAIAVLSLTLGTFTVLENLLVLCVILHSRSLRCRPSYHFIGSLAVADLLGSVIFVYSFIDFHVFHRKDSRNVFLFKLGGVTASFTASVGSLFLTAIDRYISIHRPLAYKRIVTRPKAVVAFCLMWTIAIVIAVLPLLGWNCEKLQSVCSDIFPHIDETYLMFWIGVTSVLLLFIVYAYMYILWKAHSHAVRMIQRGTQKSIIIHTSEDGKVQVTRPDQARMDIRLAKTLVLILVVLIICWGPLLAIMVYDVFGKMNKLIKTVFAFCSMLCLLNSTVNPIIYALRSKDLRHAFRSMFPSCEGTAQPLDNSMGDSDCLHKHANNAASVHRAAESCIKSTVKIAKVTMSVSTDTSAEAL

SMILES	IC50 [µM]
O=C(Nc1cccc(F)c1)Nc1cccc(OC(F)F)c1 [Compound 371, 1-[3-(difluoromethoxy)phenyl]-3-(3-fluorophenyl)urea]	< 2
CC(C)Oc1ccc(NC(=O)Nc2ccc(F)cc2)cc1 [Compound 368, 1-(4-fluorophenyl)-3-(4-isopropoxyphenyl)urea]	< 2
CCOc1cccc(NC(=O)Nc2ccc(C)cc2)c1 [Compound 354, 1-(3-ethoxyphenyl)-3-(4-methylphenyl)urea]	< 2
CCOc1cccc(NC(=O)Nc2ccc(F)cc2)c1 [Compound 356, 1-(3-ethoxyphenyl)-3-(4-fluorophenyl)urea]	< 2
CCc1ccccc1NC(=O)Nc1cccc(OC(F)F)c1 [Compound 378, 1-[3-(difluoromethoxy)phenyl]-3-(2-ethylphenyl)urea]	< 2

Next, values leading:

IC50 [µM]	SMILES
< 2	CCOc1cccc(NC(=O)Nc2ccc(C)c(C)c2)c1 [Compound 680, 1-(3,4-dimethylphenyl)-3-(3-ethoxyphenyl)urea]
< 2	N#CCOc1ccc(NC(=O)Nc2cccc([N+](=O)[O-])c2)cc1 [Compound 600, 1-[4-(cyanomethoxy)phenyl]-3-(3-nitrophenyl)urea]
< 2	N#CCOc1ccc(NC(=O)Nc2cccc(C#N)c2)cc1 [Compound 507, 1-[4-(cyanomethoxy)phenyl]-3-(3-cyanophenyl)urea]
< 2	COC(=O)c1ccc(NC(=O)Nc2ccc(F)cc2)cc1 [Compound 472, methyl 4-({[(4-fluorophenyl)amino]carbonyl)amino)benzoate]
< 2	CCc1ccc(NC(=O)Nc2ccc(COC)cc2)cc1 [Compound 393, 1-(4-ethylphenyl)-3-[4-(methoxymethyl)phenyl]urea]
< 2	CCCOc1ccc(NC(=O)Nc2ccc(C(C)=O)cc2)cc1 [Compound 417, 1-(4-acetylphenyl)-3-(4-propoxyphenyl)urea]
< 2	CCOc1ccc(NC(=O)Nc2ccc(S(C)(=O)=O)cc2)cc1 [Compound 596, 1-(4-ethoxyphenyl)-3-[4-(methylsulfonyl)phenyl]urea]
< 2	CC(C)c1ccc(NC(=O)Nc2cccc(OC(F)F)c2)cc1 [Compound 577, 1-[3-(difluoromethoxy)phenyl]-3-(4-isopropylphenyl)urea]
< 2	Cc1cc(NC(=O)Nc2cccc(OC(F)F)c2)ccc1F [Compound 697, 1-[3-(difluoromethoxy)phenyl]-3-(4-fluoro-3-methylphenyl)urea]
< 2	CCOc1ccc(NC(=O)Nc2cccc(C(C)=O)c2)cc1 [Compound 412, 1-(3-acetylphenyl)-3-(4-ethoxyphenyl)urea]
< 2	N#CCOc1ccc(NC(=O)Nc2cccc(OC(F)F)c2)cc1 [Compound 783, N-[4-(cyanomethoxy)phenyl]-N′-[3-(difluoromethoxy)phenyl]urea]
< 2	COc1ccc(NC(=O)Nc2cccc(OC(C)C)c2)cc1 [Compound 549, 1-(3-isopropoxyphenyl)-3-(4-methoxyphenyl)urea]
< 2	N#CCc1ccc(NC(=O)Nc2ccc(F)cc2)cc1 [Compound 462, 1-[4-(cyanomethyl)phenyl]-3-(4-fluorophenyl)urea]
< 2	CC(C)Oc1cccc(NC(=O)Nc2ccc(F)c(F)c2)c1 [Compound 690, 1-(3,4-difluorophenyl)-3-(3-isopropoxyphenyl)urea]
< 2	CC(C)Oc1ccc(NC(=O)Nc2ccc(C(C)C)cc2)cc1 [Compound 575, 1-(4-isopropoxyphenyl)-3-(4-isopropylphenyl)urea]
< 2	COC(=O)c1ccc(NC(=O)Nc2ccc(C(C)=O)cc2)cc1 [Compound 510, methyl 4-({[(4-acetylphenyl)amino]carbonyl}amino)benzoate]
< 2	CCCc1ccc(NC(=O)Nc2ccc(C)c(C)c2)cc1 [Compound 654, 1-(3,4-dimethylphenyl)-3-(4-propylphenyl)urea]
< 2	Cc1ccc(NC(=O)Nc2cccc(OC(C)C)c2)cc1F [Compound 688, 1-(3-fluoro-4-methylphenyl)-3-(3-isopropoxyphenyl)urea]
< 2	CCOC(=O)c1ccc(NC(=O)Nc2cccc(CC)c2)cc1 [Compound 497, ethyl 4-({[(3-ethylphenyl)amino]carbonyl}amino)benzoate]
< 2	CCOC(=O)c1ccc(NC(=O)Nc2cccc(C#N)c2)cc1 [Compound 511, ethyl 4-({[(3-cyanophenyl)amino]carbonyl}amino)benzoate]

Same assay, conditions: Table I; IC50 at CB1, GTP binding with 1 nM CP55,940; read-out: IC50

IC50 [µM]	SMILES
< 2	CCCc1ccc(NC(=O)Nc2ccc(CC)cc2)cc1 [Compound 20, N-(4-ethylphenyl)-N′-(4-propylphenyl)urea]
< 2	Cc1ccc(NC(=O)Nc2ccc(OC(F)F)cc2)cc1 [Compound 41, N-[4-(difluoromethoxy)phenyl]-N′-(4-methylphenyl)urea]

Same assay, conditions: Table II; IC50 at CB1, GTP binding with 1 nM CP55,940; read-out: IC50

IC50 [µM]	SMILES
< 2	Cc1cc(C)cc(NC(=O)Nc2ccc(OC(F)F)cc2)c1 [Compound 89, N-[4-(difluoromethoxy)phenyl]-N′-(3,5-dimethylphenyl)urea]
< 2	CC(C)Oc1cccc(NC(=O)Nc2cccc(F)c2)c1 [Compound 211, N-(3-fluorophenyl)-N′-(3-isopropoxyphenyl)urea]
< 2	O=C(Nc1ccc(OC(F)F)cc1)Nc1ccc(C(=O)c2ccccc2)cc1 [Compound 140, N-(4-benzoylphenyl)-N′-[4-(difluoromethoxy)phenyl]urea]
< 2	CC(C)Oc1ccc(NC(=O)Nc2ccc(F)cc2)cc1 [Compound 216, N-(4-fluorophenyl)-N′-(4-isopropoxyphenyl)urea]
< 2	O=C(Nc1ccc(OC(F)F)cc1)Nc1ccc2c(c1)OC(=O)C2 [Compound 135, N-[4-(difluoromethoxy)phenyl]-N′-(2-oxo-2,3-dihydro-1-benzofuran-6-yl)urea]
< 2	CCCOc1ccc(NC(=O)Nc2cccc(Cl)c2)cc1 [Compound 244, N-(3-chlorophenyl)-N′-(4-propoxyphenyl)urea]
< 2	CCOc1ccc(NC(=O)Nc2ccccc2)cc1 [Compound 223, N-(4-ethoxyphenyl)-N′-phenylurea]
< 2	CC(C)Oc1cccc(NC(=O)Nc2cccc(C#N)c2)c1 [Compound 276, N-(3-cyanophenyl)-N′-(3-isopropoxyphenyl)urea]
< 2	COc1ccc(NC(=O)Nc2ccc(C(C)=O)cc2)cc1 [Compound 260, N-(4-acetylphenyl)-N′-(4-methoxyphenyl)urea]
< 2	CC(C)Oc1ccc(NC(=O)Nc2cccc(OC(F)F)c2)cc1 [Compound 144, N-[3-(difluoromethoxy)phenyl]-N′-(4-isopropoxyphenyl)urea]
< 2	CCOc1ccc(NC(=O)Nc2ccc(OC(F)F)cc2)cc1 [Compound 131, N-[4-(difluoromethoxy)phenyl]-N′-(4-ethoxyphenyl)urea]
< 2	Cc1noc(C)c1-c1cccc(NC(=O)Nc2cccc(OC(F)F)c2)c1 [Compound 146, N-[3-(difluoromethoxy)phenyl]-N′-[3-(3,5-dimethylisoxazol-4-yl)phenyl]urea]
< 2	CCCOc1ccc(NC(=O)Nc2ccc(F)cc2)cc1 [Compound 210, N-(4-fluorophenyl)-N′-(4-propoxyphenyl)urea]
< 2	CCOc1ccc(NC(=O)Nc2ccc(CC)cc2)cc1 [Compound 235, N-(4-ethoxyphenyl)-N′-(4-ethylphenyl)urea]

— patent publication US20090239841A1, “Diaryl Ureas as CB1 Antagonists” (priority 2004, published 2009)
